# Assay results taken from patent US20260193272A1, “SELENIUM CONTAINING HETEROCYCLE COMPOUNDS AND USE THEREOF” (HELIOS HUAMING BIOPHARMA CO., LTD., priority 2022, published 2026).
# Biological target: T1, PAD4 enzyme (Homo sapiens, UniProt Q9UM07)
# T1 construct: PAD4 enzyme was diluted to 30 nM in Assay Buffer
# Assay: In-vitro measurement for enzymatic PAD4 citrullination inhibition activity (ammonia release)
# Type: biochemical
# Details: direct comparison of prior art and selenium containing compounds; read-out: IC50 for enzymatic PAD4 citrullination inhibition
# Protocol: Citrullination was detected via ammonia release based on published methodology (Nature Chemical Biology, 2015, 11: 189-191).
# PAD4 enzyme was diluted to 30 nM in Assay Buffer (100 mM HEPES, 50 mM NaCl, 2 mM DTT, 0.6 mg/ml BSA, pH 8) and added to wells containing various concentrations of compound or DMSO vehicle (0.8% final) in a high-volume black 96-well plate (Greiner). Following a 60-min preincubation at 27° C., the reaction was initiated by the addition of substrate (3 mM BAEE in 100 mM HEPES, 50 mM NaCl, […] CaCl2, 2 mM DTT, pH 8). The reaction was stopped after 90 min by the addition of stop/detection buffer containing 50 mM EDTA, 2.6 mM o-phthalaldehyde and 2.6 mM DTT. Assays were incubated at 27° C. for 120 min before measuring fluorescence (λex 410/λem 476) on an Envision plate reader (PerkinElmer). After which IC50 values were calculated using GraphPad Prism 8.0.
# T1 sequence (Q9UM07 whole entry): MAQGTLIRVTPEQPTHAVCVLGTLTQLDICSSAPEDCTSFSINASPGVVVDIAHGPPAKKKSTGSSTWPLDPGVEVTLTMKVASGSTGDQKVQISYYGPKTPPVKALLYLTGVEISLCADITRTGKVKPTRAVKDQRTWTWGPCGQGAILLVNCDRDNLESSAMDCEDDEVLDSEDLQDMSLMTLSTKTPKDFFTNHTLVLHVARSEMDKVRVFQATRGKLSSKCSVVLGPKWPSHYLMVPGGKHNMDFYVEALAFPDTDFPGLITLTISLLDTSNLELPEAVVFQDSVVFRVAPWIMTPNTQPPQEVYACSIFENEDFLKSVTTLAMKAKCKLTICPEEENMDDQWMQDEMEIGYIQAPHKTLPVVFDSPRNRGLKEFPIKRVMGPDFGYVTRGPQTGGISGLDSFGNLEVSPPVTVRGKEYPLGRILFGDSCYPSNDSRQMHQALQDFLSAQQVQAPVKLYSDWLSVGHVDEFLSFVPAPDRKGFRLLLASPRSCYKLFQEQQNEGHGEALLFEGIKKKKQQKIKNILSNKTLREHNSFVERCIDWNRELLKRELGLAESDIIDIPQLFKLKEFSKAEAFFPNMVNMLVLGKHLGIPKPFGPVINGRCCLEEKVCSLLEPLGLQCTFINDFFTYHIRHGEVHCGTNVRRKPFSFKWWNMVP
row,SMILES,IC50
1,"COc1cc(C(=O)N2C[C@H]3CC[C@@H]2[C@@H]3N)cc2nc(-c3cc4sc(C)cc4n3CC3CC3)n(C)c12 [Cpd-27, reference compound]",0.272 µM
2,"COc1cc(C(=O)N2CCC[C@@H](N)C2)cc2nc(-c3cc4sc(C5CC5)nc4n3CC3CC3)n(C)c12 [Cpd-118, reference compound]",0.0668 µM

# The next lines start with the values.
row,IC50,SMILES
1,0.0224 µM,COc1cc(C(=O)N2CCC[C@@H](N)C2)cc2nc(-c3cc4[se]c(C5CC5)nc4n3CC3CC3)n(C)c12 [HH-4]
2,0.0251 µM,COc1cc(C(=O)N2C[C@H]3CC[C@@H]2[C@@H]3N)cc2nc(-c3cc4[se]c(C)cc4n3CC3CC3)n(C)c12 [HH-52]

# Same assay, conditions: read-out: IC50 of inhibition enzymatic activity of PAD4 (Colorimetric assays, Nature Chemical Biology, 2015, 11: 189-191)
row,SMILES,IC50
1,COc1cc(C(=O)N2CC[C@@H](O)[C@@H](N)C2)cc2nc(-c3cc4[se]c(C)nc4n3CC3CC3)n(C)c12 [HH-11],0.1 to 0.5 µM
2,COc1cc(C(=O)N2C[C@H](N)CC(F)(F)C2)cc2nc(-c3cc4[se]c(C)nc4n3CC3CC3)n(C)c12 [HH-13],> 0.5 µM
3,COc1cc(C(=O)N2CC[C@@H](F)[C@@H](N)C2)cc2nc(-c3cc4[se]c(C)nc4n3CC3CC3)n(C)c12 [HH-14],0.1 to 0.5 µM
4,CCn1c(-c2nc3cc(C(=O)N4C[C@H](N)CC[C@@H]4C)cc(OC)c3n2C)cc2[se]c(C)nc21 [HH-19],0.1 to 0.5 µM
5,CCn1c(-c2nc3cc(C(=O)N4C[C@H]5CC[C@@H]4[C@@H]5N)cc(OC)c3n2C)cc2[se]c(C)nc21 [HH-20],0.1 to 0.5 µM
6,CCn1c(-c2nc3cc(C(=O)N4C[C@H](N)C[C@@H](F)C4)cc(OC)c3n2C)cc2[se]c(C)nc21 [HH-21],0.1 to 0.5 µM
7,COc1cc(C(=O)N2C[C@H](N)CC[C@@H]2C)cc2nc(-c3cc4[se]c(C)nc4n3CC(C)(C)C)n(C)c12 [HH-22],0.1 to 0.5 µM
8,COc1cc(C(=O)N2C[C@H](N)CC[C@@H]2C)cc2nc(-c3cc4[se]c(C)nc4n3CC(F)(F)F)n(C)c12 [HH-23],0.1 to 0.5 µM
9,COc1ccccc1Cn1c(-c2nc3cc(C(=O)N4C[C@H](N)CC[C@@H]4C)cc(OC)c3n2C)cc2[se]c(C)nc21 [HH-26],0.1 to 0.5 µM
10,COc1cccc(Cn2c(-c3nc4cc(C(=O)N5C[C@H](N)CC[C@@H]5C)cc(OC)c4n3C)cc3[se]c(C)nc32)c1 [HH-27],0.1 to 0.5 µM
11,COc1cc(C(=O)N2C[C@H](N)CC[C@@H]2C)cc2nc(-c3cc4[se]c(C)nc4n3Cc3ccc(C(F)(F)F)cc3)n(C)c12 [HH-28],> 0.5 µM
12,COc1cc(C(=O)N2C[C@H](N)CC[C@@H]2C)cc2nc(-c3cc4[se]c(C)nc4n3Cc3ccncc3)n(C)c12 [HH-29],0.1 to 0.5 µM
13,COc1cc(C(=O)N2C[C@H]3CC[C@@H]2[C@@H]3N)cc2nc(-c3cc4[se]c(C)nc4n3Cc3ccncc3)n(C)c12 [HH-30],0.1 to 0.5 µM
14,COc1cc(C(=O)N2C[C@H](N)CC[C@@H]2C)cc2nc(-c3cc4[se]c(C)nc4n3Cc3ccccn3)n(C)c12 [HH-31],0.1 to 0.5 µM
15,COc1cc(C(=O)N2C[C@H](N)CC[C@@H]2C)cc2nc(-c3cc4[se]c(C)nc4n3Cc3ccoc3)n(C)c12 [HH-32],0.1 to 0.5 µM
16,COc1cc(C(=O)N2C[C@H](N)CC[C@@H]2C)cc2nc(-c3cc4[se]c(C)nc4n3Cc3ccsc3)n(C)c12 [HH-34],0.05 to 0.1 µM
17,COc1cc(C(=O)N2C[C@H](N)CC[C@@H]2C)cc2nc(-c3cc4[se]c(C5CCNCC5)nc4n3CC3CC3)n(C)c12 [HH-35],0.05 to 0.1 µM
18,COc1cc(C(=O)N2C[C@H](N)C[C@@H](F)C2)cc2nc(-c3cc4[se]c(C5CCNCC5)nc4n3CC3CC3)n(C)c12 [HH-36],0.1 to 0.5 µM
19,COc1cc(C(=O)N2C[C@H]3CC[C@@H]2[C@@H]3N)cc2nc(-c3cc4[se]c(C5CCNCC5)nc4n3CC3CC3)n(C)c12 [HH-37],0.1 to 0.5 µM
20,COc1ccccc1-c1nc2c(cc(-c3nc4cc(C(=O)N5C[C@H](N)CC[C@@H]5C)cc(OC)c4n3C)n2CC2CC2)[se]1 [HH-38],0.1 to 0.5 µM

row,SMILES,IC50
1,COc1ccccc1-c1nc2c(cc(-c3nc4cc(C(=O)N5C[C@H]6CC[C@@H]5[C@@H]6N)cc(OC)c4n3C)n2CC2CC2)[se]1 [HH-39],> 0.5 µM
2,COc1ccc(-c2nc3c(cc(-c4nc5cc(C(=O)N6C[C@H](N)C[C@@H](F)C6)cc(OC)c5n4C)n3CC3CC3)[se]2)cc1 [HH-40],0.1 to 0.5 µM
3,COc1cc(C(=O)N2C[C@H](N)CC[C@@H]2C)cc2nc(-c3cc4[se]c(-c5ccncc5)nc4n3CC3CC3)n(C)c12 [HH-41],0.1 to 0.5 µM
4,COc1cc(C(=O)N2C[C@H](N)C[C@@H](F)C2)cc2nc(-c3cc4[se]c(-c5ccncc5)nc4n3CC3CC3)n(C)c12 [HH-42],0.1 to 0.5 µM
5,COc1cc(C(=O)N2C[C@H](N)CC[C@@H]2C)cc2nc(-c3cc4[se]c(-c5ccccn5)nc4n3CC3CC3)n(C)c12 [HH-43],0.1 to 0.5 µM
6,COc1cc(C(=O)N2C[C@H]3CC[C@@H]2[C@@H]3N)cc2nc(-c3cc4[se]c(-c5ccccn5)nc4n3CC3CC3)n(C)c12 [HH-44],0.1 to 0.5 µM
7,COc1cc(C(=O)N2C[C@H](N)CC[C@@H]2C)cc2nc(-c3cc4[se]c(-c5ccc(C)cc5)nc4n3CC3CC3)n(C)c12 [HH-45],> 0.5 µM
8,COc1cc(C(=O)N2C[C@H](N)C[C@@H](F)C2)cc2nc(-c3cc4[se]c(-c5cccc(C)c5)nc4n3CC3CC3)n(C)c12 [HH-46],> 0.5 µM
9,COc1cc(C(=O)N2C[C@H](N)C[C@@H](F)C2)cc2nc(-c3cc4[se]ccc4n3CC3CC3)n(C)c12 [HH-47],0.05 to 0.1 µM
10,COc1cc(C(=O)N2C[C@H](N)CC[C@@H]2C)cc2nc(-c3cc4[se]ccc4n3CC3CC3)n(C)c12 [HH-48],0.1 to 0.5 µM
11,COc1cc(C(=O)N2CCC[C@@H](N)C2)cc2nc(-c3cc4[se]c(C)cc4n3CC3CC3)n(C)c12 [HH-50],0.05 to 0.1 µM
12,COc1cc(C(=O)N2C[C@H](N)C[C@@H](F)C2)cc2nc(-c3cc4[se]c(C5CCCN5)cc4n3CC3CC3)n(C)c12 (some centres unmarked) [HH-53],0.05 to 0.1 µM
13,COc1cc(C(=O)N2C[C@H](N)CC[C@@H]2C)cc2nc(-c3cc4[se]c(C5CCCN5)cc4n3CC3CC3)n(C)c12 (some centres unmarked) [HH-54],0.05 to 0.1 µM
14,COc1cc(C(=O)N2C[C@H]3CC[C@@H]2[C@@H]3N)cc2nc(-c3cc4[se]c(C5CCCN5)cc4n3CC3CC3)n(C)c12 (some centres unmarked) [HH-55],0.1 to 0.5 µM
15,COc1cc(C(=O)N2C[C@H]3CC[C@@H]2[C@@H]3N)cc2nc(-c3cc4[se]c(-c5ccc(C)cc5)cc4n3CC3CC3)n(C)c12 [HH-56],0.1 to 0.5 µM
16,COc1cc(C(=O)N2C[C@H]3CC[C@@H]2[C@@H]3N)cc2nc(-c3cc4[se]c(-c5cccc(C)c5)cc4n3CC3CC3)n(C)c12 [HH-57],0.1 to 0.5 µM
17,COc1ccc(-c2cc3c(cc(-c4nc5cc(C(=O)N6C[C@H]7CC[C@@H]6[C@@H]7N)cc(OC)c5n4C)n3CC3CC3)[se]2)cc1 [HH-58],0.1 to 0.5 µM
18,COc1ccccc1-c1cc2c(cc(-c3nc4cc(C(=O)N5C[C@H](N)C[C@@H](F)C5)cc(OC)c4n3C)n2CC2CC2)[se]1 [HH-60],0.1 to 0.5 µM
19,COc1cc(C(=O)N2C[C@H]3CC[C@@H]2[C@@H]3N)cc2nc(-c3cc4[se]c(-c5ccccn5)cc4n3CC3CC3)n(C)c12 [HH-61],0.1 to 0.5 µM

# Continued, values first:
row,IC50,SMILES
1,≤ 0.05 µM,CCc1nc2c(cc(-c3nc4cc(C(=O)N5C[C@H]6CC[C@@H]5[C@@H]6N)cc(OC)c4n3C)n2CC2CC2)[se]1 [HH-1]
2,≤ 0.05 µM,CCc1nc2c(cc(-c3nc4cc(C(=O)N5C[C@H](N)CC[C@@H]5C)cc(OC)c4n3C)n2CC2CC2)[se]1 [HH-2]
3,≤ 0.05 µM,CCc1nc2c(cc(-c3nc4cc(C(=O)N5C[C@H](N)C[C@@H](F)C5)cc(OC)c4n3C)n2CC2CC2)[se]1 [HH-3]
4,≤ 0.05 µM,COc1cc(C(=O)N2CCC[C@@H](N)C2)cc2nc(-c3cc4[se]c(C5CC5)nc4n3CC3CC3)n(C)c12 [HH-4]
5,≤ 0.05 µM,COc1cc(C(=O)N2C[C@H](N)C[C@@H](F)C2)cc2nc(-c3cc4[se]c(C5CC5)nc4n3CC3CC3)n(C)c12 [HH-5]
6,≤ 0.05 µM,COc1cc(C(=O)N2C[C@H](N)CC[C@@H]2C)cc2nc(-c3cc4[se]c(C5CC5)nc4n3CC3CC3)n(C)c12 [HH-6]
7,≤ 0.05 µM,COc1cc(C(=O)N2C[C@H]3CC[C@@H]2[C@@H]3N)cc2nc(-c3cc4[se]c(C5CC5)nc4n3CC3CC3)n(C)c12 [HH-7]
8,≤ 0.05 µM,COc1cc(C(=O)N2C[C@H](N)CC[C@@H]2C)cc2nc(-c3cc4[se]c(C)nc4n3CC3CC3)n(C)c12 [HH-8]
9,≤ 0.05 µM,COc1cc(C(=O)N2C[C@H]3CC[C@@H]2[C@@H]3N)cc2nc(-c3cc4[se]c(C)nc4n3CC3CC3)n(C)c12 [HH-9]
10,≤ 0.05 µM,COc1cc(C(=O)N2C[C@H](N)C[C@@H](F)C2)cc2nc(-c3cc4[se]c(C)nc4n3CC3CC3)n(C)c12 [HH-10]
11,≤ 0.05 µM,COc1cc(C(=O)N2CCC[C@@H](N)C2)cc2nc(-c3cc4[se]c(C)nc4n3CC3CC3)n(C)c12 [HH-12]
12,≤ 0.05 µM,COc1cc(C(=O)N2C[C@H](N)CC[C@@H]2C)cc2nc(-c3cc4[se]c(C)nc4n3CC3CCC3)n(C)c12 [HH-15]
13,≤ 0.05 µM,COc1cc(C(=O)N2C[C@H]3CC[C@@H]2[C@@H]3N)cc2nc(-c3cc4[se]c(C)nc4n3CC3CCC3)n(C)c12 [HH-16]
14,≤ 0.05 µM,COc1cc(C(=O)N2CCC[C@@H](N)C2)cc2nc(-c3cc4[se]c(C)nc4n3CC3CCC3)n(C)c12 [HH-17]
15,≤ 0.05 µM,COc1cc(C(=O)N2C[C@H](N)C[C@@H](F)C2)cc2nc(-c3cc4[se]c(C)nc4n3CC3CCC3)n(C)c12 [HH-18]
16,≤ 0.05 µM,COc1cc(C(=O)N2C[C@H](N)CC[C@@H]2C)cc2nc(-c3cc4[se]c(C)cc4n3CC3CC3)n(C)c12 [HH-49]
17,≤ 0.05 µM,COc1cc(C(=O)N2C[C@H](N)C[C@@H](F)C2)cc2nc(-c3cc4[se]c(C)cc4n3CC3CC3)n(C)c12 [HH-51]
18,≤ 0.05 µM,COc1cc(C(=O)N2C[C@H]3CC[C@@H]2[C@@H]3N)cc2nc(-c3cc4[se]c(C)cc4n3CC3CC3)n(C)c12 [HH-52]
19,≤ 0.05 µM,COc1ccccc1-c1cc2c(cc(-c3nc4cc(C(=O)N5C[C@H](N)CC[C@@H]5C)cc(OC)c4n3C)n2CC2CC2)[se]1 [HH-59]
